The target of experiment [1] is Genome polyprotein (dengue virus type 2) (UniProt P29990). The note with it: Thailand/16681/1984, Concentration 25.0 uM, Number of replicates 1.0.
For experiment [2] the target is unchanged. The note with it: Number of replicates 1.0.
Where [3] appears, read: Thailand/16681/1984, Concentration 100.0 uM.
Where [4] appears, read: Thailand/16681/1984, Concentration 200.0 uM.

The source of these data is ChEMBL document CHEMBL5606460, “ASAP - DENV-2 NS2B-NS3 protease fluorescence single point” (2024).

Turning to `Nc1ccc2ccc(B(O)O)cc2c1`, the inhibition in experiment [1] turned out to be 15.2%.

For `O=Cc1ccc(N2CCC(C(=O)O)CC2)o1`, the inhibition in experiment [1] was determined as 40.9%.

With `O=Cc1ccc(N2CCCCCC2)cc1`, the inhibition in experiment [1] was found to be 32.8%.

`Cc1cc(NS(=O)(=O)c2ccc(S(=O)(=O)F)cc2)c[nH]c1=O`: the inhibition in experiment [1] was 19.6%.

Turning to `Cc1c(C=O)c2ccccn2c1C#N`, the inhibition in experiment [1] was found to be 30.7%.

In the case of `O=Cc1nc(-c2ccccc2Cl)n2ccccc12`, the inhibition in experiment [1] is 20.2%.

Consider `CN(C)c1ccc(C=C(C#N)C(N)=O)cc1`, for which, in experiment [1], the inhibition worked out at 20.8%.

For `O=Cc1ccc(N2CCCCC2)cc1`, in experiment [1], the inhibition was 37.1%.

On to `Cc1nc(C=O)c2ccccn12`, for which the inhibition in experiment [1] came to 33.3%.

Regarding `Cc1c(C=O)c2ccccn2c1C(=O)c1ccncc1`, the inhibition in experiment [1] was 41.1%.

With `O=Cc1ccc(N2CCC(C(=O)O)CC2)cc1`, the inhibition in experiment [1] came to 47.6%.

As to `CC[C@H]1CO[C@H](C)CN1c1ccc(C=O)cn1`, the inhibition in experiment [1] is 41.1%.

Regarding `O=c1ccc(-n2cncn2)nn1CC=Cc1ccccc1`, the inhibition in experiment [2] (Thailand/16681/1984, Concentration 50.0 uM) was -6.72%; in experiment [2] (setting [3]), -7%; in experiment [2] (setting [4]) it was -8.49%.

On to `c1csc(CSc2nnc(Cn3cncn3)o2)c1`, for which the results for the inhibition in experiment [2] (setting [3]) and in experiment [2] (setting [4]) were 4.46% and -3.48%, respectively.
